In one experiment the test system is Nav1.7. The settings on record: also ref 20 (HwTx-IV), 36 (HnTx-III), 37 (HnTx-IV); cited from earlier work. The source says: In order to further understand the actions of HpTx3 on the Nav1.7 channel, we examined the effect of the toxin on the current–voltage (I–V) relationship of the Nav channel subtype. […] When the conductance–voltage (G–V) relationship and the steady-state inactivation of Nav1.7 before and after HpTx3 treatment were inve ...

For experiment [1], the system named is C57BL/6 mice, CFA pain model. The experiment is described as follows: Complete Freund’s adjuvant (CFA)-induced hyperalgesia. It is filed as in vivo, mouse (C57BL/6). The settings on record: morphine 1 mg/kg i.m. The procedure: (§1) Healthy female C57BL/6 mice (weighting 18–20 g) that were used for analgesic activity assay were obtained from the Experimental Animal Center of SLac-kinda (Changsha, China) and were randomly assigned to five groups, each group generally containing 8 mice. […] The mice were maintained at a temperature of 20–25 °C and under a 12 h light/12 h dark cycle, with free access to food and water. The ethical approval for the in vivo animal experiments was obtained from the Animal Care and Use Committee of the Hunan Province Animal Management Office. (The approval code: 219/2019).

Experiment [2] relates to C57BL/6 mice, hot plate pain model. The experiment is described as follows: Hot plate test. The note with it: morphine 1 mg/kg i.p. It is filed as in vivo, mouse (C57BL/6). The procedure:
as §1
Hot plate test was conducted according to the method described. The hot plate test apparatus (model YSL-21, Jinan, China) was placed in a quiet room, and the temperature was set at 55 ± 1 °C. After each mouse was placed at the hot plate, its nociceptive responses (hind-paw licking or jumping) and nociceptive threshold (paw withdrawal latency) were observed and recorded. […] The mice displaying abnormal baseline paw withdrawals (shorter than 5 s and longer than 30 s) were excluded from the test.

For another experiment, the system named is C57BL/6 mice, SNI model. Nature of the experiment: Spared nerve injury (SNI) model. It is filed as in vivo, mouse (C57BL/6). The note with it: morphine 1 mg/kg; 18 days after surgery; control 0.47 g; n = 8. The procedure: as §1
Experiment [3] relates to C57BL/6 mice, formalin-induced pain model. The experiment is described as follows: Formalin-induced paw licking. It is filed as in vivo, mouse (C57BL/6). The settings on record: morphine 1 mg/kg i.m., n = 8. How it is done: as §1
The changes in the formalin-induced nociceptive reaction in mice was used to assess the in vivo effect of HpTx3 on Nav1.7-mediated pain [74, 77, 78]. Paw licking, a pain-related behavior, was induced by subcutaneous intraplantar injection of formalin. […] The time that was spent to lick the injected paw by each mouse during phase I (0–10 min after injection) and phase II (15–35 min after injection) was separately recorded with a digital stopwatch. The nociceptive behavior attenuation by HpTx3 was evaluated by comparison of the paw licking times of the mice in each group.

Results on two molecules are retold here after publication PMC6950750, “Newly Discovered Action of HpTx3 from Venom of Heteropoda venatoria on Nav1.7 and Its Pharmacological Implications in Analgesia” (Toxins, 2019).

HwTx-IV: Nav1.7-targeting peptide toxin: in the experiment with Nav1.7, the “alteration in voltage-dependence of activation and steady-state inactivation of Nav1.7” value is given as “less than 5 mV”; the “effect on I-V relationship for Nav1.7” value is listed as “do not alter the I-V relationship”.
For `CN1CC[C@]23c4c5ccc(O)c4O[C@H]2[C@@H](O)C=C[C@H]3[C@H]1C5` [morphine], in experiment [1], the “time of strongest analgesic effect after injection, CFA” value is reported as 0.5 h. In experiment [1] (control 0.71 g, n = 8), the “paw withdrawal threshold, CFA” value is 1.05 g. Moreover, in experiment [2], the “time of most analgesic effect after injection, hot plate” value was 0.5 h. Further, the “average paw withdrawal latency, hot plate” value in experiment [2] (55 ± 1 °C, control 5.93 s, n = 8) is 11.03 s. In addition, the “average paw withdrawal threshold, SNI” value in the experiment with C57BL/6 mice, SNI model is 1.05 g. The “total paw licking time, phase I” value in experiment [3] (0–10 min after formalin, control 248 s) is reported as 99 s. In experiment [3] (15–35 min after formalin, control 572.7 s), the “total paw licking time, phase II” value is listed as 134.3 s.
